Experimental data: patent US20190054054A1, “Methods reducing or preventing oxidation of high density lipoprotein (HDL)” (Amarin Pharmaceuticals Ireland Limited, priority 2017, published 2019)
“Also recorded” adds a separate entry of the source.

Experiments:
[1] = Lipid hydroperoxide (LOOH) formation in cholesterol-enriched model membranes under autoxidation (Example 3); assay type: biochemical; details: EPA to lipids 1:30, C/P mole ratio 0.6:1
Experimental: An experiment was conducted to test EPA in model membranes enriched with PUFAs and cholesterol at levels that reproduce disease or high CV-risk conditions (i.e., hypercholesterolemia). […] Levels of lipid hydroperoxides were also measured in cholesterol-enriched membrane prepared in the absence of EPA as a control. […] CHOD-iodide color reagent (stock) was prepared according to a procedure modified from El-Saadani et […], Goher […], Jurgens G. A spectrophotometric assay for lipid peroxides in serum lipoproteins using commercially available reagent. J. Lipid. […] Membrane samples consisting of DLPC±cholesterol were prepared as follows. […] To ensure spectrophotometric readings within the optimum absorbance range, sample volumes taken for measurement of lipid peroxide formation were adjusted for length of peroxidation and range between 100 and 10 μL. […] Absorbances were measured against a CHOD blank at 365 nm using a Beckman DU-640 spectrophotometer. The CHOD colorimetric assay is based on the oxidation of iodide (I^-) by lipid hydroperoxides (LOOH) and proceeds according to the following reaction scheme: […]3^- The quantity of triiodide anion (I3^-) liberated in this reaction is directly proportional to the amount of lipid hydroperoxides present in the membrane sample.

[2] = system: human HDL; test: Copper-induced oxidation of human HDL, TBARS/MDA (Example 14); assay type: biochemical
Experimental: LDL and sdLDL subfractions (0.6 mL each) were incubated with either 10 μL vehicle (ethanol) or 10 μL drug stock solution for 30 min to 1 hr at 37° C. Oxidation was initiated by the addition of 10 μM CuSO4. After 2 hr, 100 μL aliquots were removed from each subfraction and combined with 1.0 mL thiobarbituric acid (0.5%), 10 μL trichloroacetic acid (5%), 10 μL BHT (5 mg/mL in methanol), and 10 μL EDTA (5 mM). Sample aliquots were incubated at 100° C. for 20 min and then assayed for the formation of thiobarbituric acid-reactive substances (TBARS), which have a molar absorptivity (c) value of 1.56×10^5 M^−1 cm^−1 at 532 nm and are derived principally from the reaction of thiobarbituric acid with malondialdehyde (MDA), a reactive aldehyde produced by LDL oxidation. Sample TBARS concentrations were determined spectrophotometrically by measuring sample absorbances against a standard curve derived from the hydrolysis of 1,1,3,3-tetramethoxypropane.
A study was performed to test whether EPA, DHA or EPA/DHA have antioxidant effects on high density lipoprotein. HDL was isolated from human plasma by iodixanol gradient ultracentrifugation and adjusted to a final apolipoprotein (apoA1) concentration of 10 mg/mL. Isolated HDL was separated into test samples of 200 μg/mL […] (based on ApoA1), and incubated at 37° C. in the absence (vehicle) or presence of EPA and/or DHA; 5.0 or […] each. Samples were then subjected to copper-induced oxidation (10 μM CuSO4) and, at different time points up to 14 hours, aliquots were removed from each sample and formation of TBARS was determined as explained above in Example 6.

[3] = patients; clinical studies by others; cited from earlier work
[4] = 5 μM (combination: 5 μM each), 6 h

CC/C=C\C/C=C\C/C=C\C/C=C\C/C=C\CCCC(=O)O [EPA, cis-5,8,11,14,17-eicosapentaenoic acid]
LOOH level ([1]; after autoxidation 72 hours): 728 ± 30 µM | reduction of LOOH levels compared to untreated controls ([1]; autoxidation 37° C., 72 hours): greater than 90% | MDA formation [2, 4]: 1.03 ± 0.10 µM | inhibition of HDL oxidation (antioxidant activity) [2, 4]: 81% | MDA formation ([2]; 10 μM, 1.0 hr, 10 μM CuSO4): 0.384 ± 0.097 µM | inhibition of HDL oxidation ([2]; 10 μM, 1.0 hr, 10 μM CuSO4): 92% | MDA formation ([2]; 10 μM, 4 h): 0.622 ± 0.066 µM | inhibition of HDL oxidation ([2]; 10 μM, 4 h): 89% | MDA formation ([2]; 10 μM, 14 h): 2.01 ± 0.10 µM | inhibition of HDL oxidation vs. vehicle ([2]; 10 μM, 14 h): 64% | triglycerides and oxidized LDL, Lp-PLA2, hsCRP as compared to placebo [3]: significant reductions in levels of oxidized LDL, Lp-PLA2, and hsCRP; also recorded: significant reductions in triglycerides along with reduced levels of markers of inflammation
